Assay results published in publication PMC8279414, “Discovery and Synthesis of a Pyrimidine-Based Aurora Kinase Inhibitor to Reduce Levels of MYC Oncoproteins” (Journal of Medicinal Chemistry, 2021).

Assays:
[1] = test system: NCI-H446 xenograft tumors; assay: In vivo xenograft tumor growth inhibition; set-up: species or system mice; settings: for anticancer activity in NCI-H446 xenograft tumor model: oral administration, 5-on-2-off regimen
Description: (§1) Male athymic nu/nu nude mice (BioLASCO, Taiwan) 6 weeks old were housed in sterile cages maintained under 12 h light/dark cycles with controlled temperature and humidity. Mice were inoculated subcutaneously with 1 × 10^6 NCI–H446 cells (ATCC@ HTB-171) resuspended in saline mixed with 50% Matrigel matrix (Corning, USA). The sizes of the xenografted tumors were measured by a digital caliper (GMC-190; Goldsun Electronics Co.) and calculated using the formula: tumor volume (mm^3) = length × (width)2/2. Body weight and tumor size were measured at least twice a week. When the xenograft tumor reached ≥200 mm^3 in size, mice were intravenous or orally administered with the vehicle (5% dimethylacetamide/95% PEG400) or the compounds on a 5-on-2-off dosing regimen for 2–4 weeks. Tumor growth was analyzed for a statistically significant difference using ANOVA, followed by the Student–Newman–Keuls test. P < 0.05 was considered a significant difference between groups.

[2] = test system: pH3(Ser10) in NCI-H446 xenograft tumors; assay: In vivo target validation: phosphorylation of histone H3 at Ser10 in tumors (western blot); set-up: species or system mice; settings: single oral dose 100 mg/kg, 2 h after drug administration
Description: (§2) Tumors were harvested after 2, 4, 8, and 24 h of the treatment, respectively (Figure 4A). Whole tumor tissues were collected for western blotting and immunohistochemistry (IHC) analyses. […] The western blot result of phosphorylated Aurora A/B/C was not provided due to the inability of detecting the signal in the tumor tissues.
The efficacy of a compound in reducing the MYC protein level and in inducing cell apoptosis was assessed using an NCI-H446 xenograft tumorigenicity mouse model. Six-week-old male athymic nu/nu nude mice (BioLASCO, Taiwan) were inoculated subcutaneously with 1 × 10^6 NCI-H446 cells resuspended in saline mixed with 50% Matrigel matrix (Corning, USA). […] Tumors were harvested after 2, 4, 8, and 24 h of drug treatment, respectively. Half of the tumor was cryopreserved and then subjected to western analysis; the other half was fixed in 10% formalin and then embedded in paraffin. For immunohistochemistry, tissue paraffin sections were deparaffinized using xylene and ethanol. After rehydration, antigen retrieval was achieved by placing the slides in 100 °C citrate buffer, pH 6.0 for 1 h. Endogenous peroxides were quenched by 0.5% H2O2 for 10 min. Slides were blocked with 3% BSA for 30 min and then incubated with a rabbit anticleaved Caspase-3 antibody (Cell signaling, 9661S) at room temperature for 1.5 h. […]

[3] = test system: cleaved PARP-1 (cPARP-1) in NCI-H446 xenograft tumors; assay: In vivo target validation: cleaved PARP-1 in tumors (western blot); set-up: species or system mice; settings: single oral dose 100 mg/kg, after 24 h
Description: (§3) Apoptosis was assessed using levels of PARP-1, one of several known cellular substrates of caspases; cleavage of PARP-1 by caspases is considered a hallmark of apoptosis.[44]
(§4) The efficacy of a compound in reducing the MYC protein level and in inducing cell apoptosis was assessed using an NCI-H446 xenograft tumorigenicity mouse model. Six-week-old male athymic nu/nu nude mice (BioLASCO, Taiwan) were inoculated subcutaneously with 1 × 10^6 NCI-H446 cells resuspended in saline mixed with 50% Matrigel matrix (Corning, USA). […] Tumors were harvested after 2, 4, 8, and 24 h of drug treatment, respectively. Half of the tumor was cryopreserved and then subjected to western analysis; the other half was fixed in 10% formalin and then embedded in paraffin. For immunohistochemistry, tissue paraffin sections were deparaffinized using xylene and ethanol. After rehydration, antigen retrieval was achieved by placing the slides in 100 °C citrate buffer, pH 6.0 for 1 h. Endogenous peroxides were quenched by 0.5% H2O2 for 10 min. Slides were blocked with 3% BSA for 30 min and then incubated with a rabbit anticleaved Caspase-3 antibody (Cell signaling, 9661S) at room temperature for 1.5 h. After three washes with 1× PBS, a goat antirabbit HRP-polymer (Biocare Medical, USA) was added, followed by development of the color using 3,3′-diaminobenzidine substrate chromogen (Biocare Medical, USA). […]

[4] = test system: cMYC in NCI-H446 xenograft tumors; assay: In vivo target validation: cMYC protein level in tumors (western blot); set-up: species or system mice; settings: single oral dose 100 mg/kg
Description: as §2
The efficacy of a compound in reducing the MYC protein level and in inducing cell apoptosis was assessed using an NCI-H446 xenograft tumorigenicity mouse model. Six-week-old male athymic nu/nu nude mice (BioLASCO, Taiwan) were inoculated subcutaneously with 1 × 10^6 NCI-H446 cells resuspended in saline mixed with 50% Matrigel matrix (Corning, USA). […] Tumors were harvested after 2, 4, 8, and 24 h of drug treatment, respectively. Half of the tumor was cryopreserved and then subjected to western analysis; the other half was fixed in 10% formalin and then embedded in paraffin. For immunohistochemistry, tissue paraffin sections were deparaffinized using xylene and ethanol. After rehydration, antigen retrieval was achieved by placing the slides in 100 °C citrate buffer, pH 6.0 for 1 h. Endogenous peroxides were quenched by 0.5% H2O2 for 10 min. Slides were blocked with 3% BSA for 30 min and then incubated with a rabbit anticleaved Caspase-3 antibody (Cell signaling, 9661S) at room temperature for 1.5 h. After three washes with 1× PBS, a goat antirabbit HRP-polymer (Biocare Medical, USA) was added, followed by development of the color using 3,3′-diaminobenzidine substrate chromogen (Biocare Medical, USA). The nucleus was stained with hematoxylin.

[5] = Body weight of xenograft mice during treatment; format: in vivo; settings: PO 100 mg/kg, 4-week dosing period
Description: as §1

[6] = test system: cleaved Caspase-3 (CASP3) in NCI-H446 xenograft tumors; assay: In vivo target validation: cleaved Caspase-3 immunohistochemistry; set-up: species or system mice; settings: single oral dose 100 mg/kg
Description: as §3, §4

[7] = PO, 5-on-2-off, after end of dosing

## CCOC(=O)n1nc(C)cc1Nc1cc(N2CCN(CC)CC2)nc(N[C@H]2CCN(C(=O)c3ccc(Cl)cc3F)C2)n1 [Compound 22, Ethyl (S)-5-((2-((1-(4-chloro-2-fluorobenzoyl)pyrrolidin-3-yl)amino)-6-(4-ethylpiperazin-1-yl)pyrimidin-4-yl)amino)-3-methyl-1H-pyrazole-1-carboxylate]
[1]
  anticancer activity in NCI-H446 xenograft tumor model: dose-dependent anticancer activity

## COc1cc(Nc2ncc3c(n2)-c2ccc(Cl)cc2C(c2c(F)cccc2OC)=NC3)ccc1C(=O)O [MLN8237, reference compound]
[2]
  reduction of phosphorylation level of histone H3 at Ser10: > 90%
[1]; [7]
  tumors started to grow, day after the last dosage: 22 days
[3]
  cleaved PARP-1 (cPARP-1) levels in tumor tissues: significantly upregulated
[4]; 2–24 h
  effect on the cMYC level in tumors: marginal effect

## CCC(=O)n1nc(C)cc1Nc1cc(N2CCN(CC)CC2)nc(N[C@H]2CCN(C(=O)c3ccc(Cl)cc3F)C2)n1 [Compound 25, (S)-1-(5-((2-((1-(4-Chloro-2-fluorobenzoyl)pyrrolidin-3-yl)amino)-6-(4-ethylpiperazin-1-yl)pyrimidin-4-yl)amino)-3-methyl-1H-pyrazol-1-yl)propan-1-one]
[2]
  reduction of phosphorylation level of histone H3 at Ser10: > 90%
[1]; PO 100 mg/kg, 5-on-2-off, 2 weeks
  shrinkage of tumors with volume >750 mm^3: great potency to shrink tumors
[1]; PO 100 mg/kg, 5-on-2-off, four consecutive weeks
  tumor volume regression: > 80%
[1]; [7]
  xenografted tumors remained stable after the last dosage: 44 days
[1]
  anticancer activity in NCI-H446 xenograft tumor model: dose-dependent anticancer activity
[3]
  cleaved PARP-1 (cPARP-1) levels in tumor tissues: significantly upregulated
[5]
  body weight change: less than 5%
[6]
  incidence of cleaved Caspase-3 (CASP3), IHC: greatly increased
[4]; 24 h after dosing
  cMYC protein level relative to vehicle-treated tumors: around 37%
[4]; 24 h post-treatment, vehicle 1.0 ± 0.230
  relative cMYC protein level in tumors: 0.374 ± 0.204
